These results are taken from patent US20240376286A1, “DIHYDROXY COMPOUND MANUFACTURING METHOD AND RECYCLED RESIN MANUFACTURING METHOD” (MITSUBISHI GAS CHEMICAL COMPANY, INC., priority 2021, published 2024).

Series [1] in a line: Solubility in methyl ethyl ketone (MEK) at 25° C. The class given is physicochemical. The following applies: solvent MEK.
The nature of series [2]: Solubility in toluene at 25° C. The class given is physicochemical. To be noted: solvent toluene.

Turning to `OCCOc1ccc2ccccc2c1-c1c(OCCO)ccc2ccccc12` [BNE, 2,2′-bis(2-hydroxyethoxy)-1,1′-binaphthalene], the “solubility in methyl ethyl ketone (MEK) at 25° C.” value (from here on “solubility in methyl ethyl ketone”) in series [1] is given as 0.75 g/(10 mL). Further, the “solubility in toluene at 25° C.” value in series [2] is recorded as 0.1 g/(10 mL).

Turning to `OCCOc1ccc2cc(-c3ccccc3)ccc2c1-c1c(OCCO)ccc2cc(-c3ccccc3)ccc12` [DP, 2,2′-bis(2-hydroxyethoxy)-6,6′-diphenyl-1,1′-binaphthalene], the “solubility in methyl ethyl ketone” value in series [1] was 0.3 g/(10 mL). Further, in series [2], the “solubility in toluene at 25° C.” value is given as 0.3 g/(10 mL).

Take `OCCOc1ccc(C2(c3ccc(OCCO)c(-c4ccccc4)c3)c3ccccc3-c3ccccc32)cc1-c1ccccc1` [BPPEF, 9,9-bis[4-(2-hydroxyethoxy)-3-phenylphenyl]fluorene]: in series [1], the “solubility in methyl ethyl ketone” value is listed as 4.5 g/(10 mL). The “solubility in toluene at 25° C.” value in series [2] is 0.05 g/(10 mL).
